Assay results from patent publication US20250231157A1, “METHOD FOR DETERMINING THE PARTITION OF NAPHTHENIC ACIDS FROM A PRODUCTION WATER MIMICKING SYSTEM AND MIMICKING SYSTEM” (PETRÓLEO BRASILEIRO S.A. – PETROBRAS, priority 2023, published 2025).
“And” between values parts separate entries of the source, which are not always exact repeats. Equal values may be shown once.

Columns and labels:
Format in all cases: physicochemical
[1] = Partition equilibrium (migration to aqueous phase) heptol/water under pressure and temperature, central composite design, potentiometric titration; details: for Migration, Predicted: model value
Method: Three multivariate experimental designs (central composite designs) were performed in which the variables pressure (up to 1 MPa) and temperature (between 25° C. and 80° C.) were considered independent variables, with the migration of three acidic species as the response factor: benzoic, pentanoic and cyclohexanepentanoic acid. For this purpose, 5 levels were defined and gave rise to 10 experiments for each acidic species (Table 4), added to two control experiments (with higher pressure and temperature, as well as in the absence of pressure and at room temperature).
The experiments were performed with constant salinity of 3.5% (m·v^−1), constant heptol fraction (70:30, for heptane and toluene), and acidic species concentration of 0.03 M for benzoic and pentanoic acid, and 0.01 M for cyclohexanepentanoic acid. The results were evaluated with 95% confidence, using a response surface to estimate the maximum observable effect in each case, provided that the mathematical correlation was equal to or greater than R^2: 0.75.

[2] = Control experiments: availability of the species in alkaline aqueous medium without using the reactor; details: acid solubilized directly in aqueous phase, no reactor
[3] = Partition equilibrium with addition of calcium and strontium salts to the aqueous phase; details: for Migration: salinity 3.5%
[4] = Partition equilibrium in the presence of surfactants (TBA, CTA, TMA)
[5] = 52 °C, 0.5 MPa (experiments 9 and 10)

SMILES: CCCCC(=O)O [Pentanoic Acid, pentanoic acid]
- Migration, Measured ([1]; 20 °C, 0.1 MPa (experiment 12, control)): 86.6 %, mol
- Migration, Increment (related to control) ([1]; 25 °C, 0.5 MPa (experiment 5)): −10.8 %, mol
- Migration, Measured ([1]; 25 °C, 0.5 MPa (experiment 5)): 77.3 %, mol
- Migration, Increment (related to control) ([1]; 38 °C, 0.25 MPa (experiment 1)): −13.3 %, mol
- Migration, Measured ([1]; 38 °C, 0.25 MPa (experiment 1), heptol 70:30, 3.5% salinity): 75.1 %, mol
- Migration, Increment (related to control) ([1]; 38 °C, 0.75 MPa (experiment 3)): −12.2 %, mol
- Migration, Measured ([1]; 38 °C, 0.75 MPa (experiment 3)): 76.1 %, mol
- Migration, Increment (related to control) ([1]; 52 °C, 0.1 MPa (experiment 7)): −1.5 %, mol
- Migration, Measured ([1]; 52 °C, 0.1 MPa (experiment 7)): 85.3 %, mol
- Migration, Increment (related to control) [1, 5]: 2.2 %, mol and 1.8 %, mol
- Migration, Measured ([1]; 52 °C, 0.5 MPa (experiments 9 and 10, centre point)): 88.5 %, mol and 88.2 %, mol
- Migration, Increment (related to control) ([1]; 52 °C, 1 MPa (experiment 8)): 3.1 %, mol
- Migration, Measured ([1]; 52 °C, 1 MPa (experiment 8)): 89.4 %, mol
- Migration, Increment (related to control) ([1]; 66 °C, 0.25 MPa (experiment 2)): −4.1 %, mol
- Migration, Measured ([1]; 66 °C, 0.25 MPa (experiment 2)): 83.1 %, mol
- Migration, Increment (related to control) ([1]; 66 °C, 0.75 MPa (experiment 4)): −5.2 %, mol
- Migration, Measured ([1]; 66 °C, 0.75 MPa (experiment 4)): 82.2 %, mol
- Migration, Increment (related to control) ([1]; 80 °C, 0.5 MPa (experiment 6)): 0.5 %, mol
- Migration, Measured ([1]; 80 °C, 0.5 MPa (experiment 6)): 87.1 %, mol
- Migration, Increment (related to control) ([1]; 80 °C, 1 MPa (experiment 11)): 2.5 %, mol
- Migration, Measured ([1]; 80 °C, 1 MPa (experiment 11, control)): 88.8 %, mol
- Migration, Predicted ([1]; 25 °C, 0.5 MPa (experiment 5)): 74.2 %, mol
- Migration, Predicted ([1]; 38 °C, 0.25 MPa (experiment 1)): 79.9 %, mol
- Migration, Predicted ([1]; 38 °C, 0.75 MPa (experiment 3)): 82.2 %, mol
- Migration, Predicted ([1]; 52 °C, 0.1 MPa (experiment 7)): 83.6 %, mol
- Migration, Predicted [1, 5]: 85.4 %, mol
- Migration, Predicted ([1]; 52 °C, 1 MPa (experiment 8)): 86.3 %, mol
- Migration, Predicted ([1]; 66 °C, 0.25 MPa (experiment 2)): 86.5 %, mol
- Migration, Predicted ([1]; 66 °C, 0.75 MPa (experiment 4)): 86.9 %, mol
- Migration, Predicted ([1]; 80 °C, 0.5 MPa (experiment 6)): 85.5 %, mol
- Migration, Predicted ([1]; 80 °C, 1 MPa (experiment 11)): 85.4 %, mol
- Decrease in the tendency to migrate relative to control, maximum over the design ([1]; pressure up to 1 MPa, 25-80 °C): up to 13.3 % mol
- Increase in migration relative to control, maximum over the design ([1]; pressure up to 1 MPa, 25-80 °C): up to 3.1 % mol
- Availability (reference value) ([2]; Na2CO3 + NaHCO3 (3.48×10^−5 mol)): 66.0 % mol
- Availability (reference value) ([2]; NaHCO3 (3.45×10^−5 mol)): 90.7 % mol
- Migration ([3]; Absence of ions): 77.0 %, mol
- Migration ([3]; Calcium 400 mg · L^−1): 90.0 %, mol
- Migration ([3]; Calcium 400 mg · L^−1, listed as pentanoic acid): ~100 %, mol
- Migration ([3]; Calcium 1200 mg · L^−1): 98.7 %, mol
- Migration ([3]; Calcium 2600 mg · L^−1): 96.7 %, mol
- Migration ([3]; Strontium 400 mg · L^−1): 100.0 %, mol
- Migration ([3]; Strontium 1200 mg · L^−1): 100.0 %, mol
- Migration ([3]; Strontium 2600 mg · L^−1): 100.0 %, mol
- Effect of strontium ions on migration to the aqueous phase ([3]; strontium 400-2600 mg·L^−1): increase in migration
- Migration ([4]; Absence of surfactant, salinity 3.5%): 77.0 %, mol
- Migration ([4]; CTA100 (cetyltrimethylammonium chloride 100 mg · L^−1)): 76.0 %, mol
- Migration ([4]; CTA1000 (1000 mg · L^−1)): 85.0 %, mol
- Migration ([4]; TBA100 (tetrabutylammonium chloride 100 mg · L^−1)): 76.2 %, mol
- Migration ([4]; TBA1000 (1000 mg · L^−1)): 73.3 %, mol
- Migration ([4]; TMA100 (trimethylammonium chloride 100 mg · L^−1)): 83.2 %, mol
- Migration ([4]; TMA1000 (1000 mg · L^−1)): 83.5 %, mol
- Increase in migration to the aqueous phase with CTA ([4]; surfactant CTA, 1000 mg·L^−1): ~10%
- Effect of TBA on migration to the aqueous phase ([4]; surfactant TBA, different concentrations): no significant effect
- Increase in affinity for the hydrophilic phase with TMA ([4]; surfactant TMA, from 100 mg·L^−1): approximately 10%
